In patent US10392383B2, “3-(1H-benzo[d]imidazol-2-yl)-1H-pyrazolo[4,3-b]pyridines and therapeutic uses thereof” (Samumed, LLC, priority 2015, dated 2019) one finds EC50 and inhibition data, which are given here for 21 compounds.

This test deals with IL-6 (THP-1 cells). Description: IL-6 inhibition in LPS-stimulated THP-1 monocytes (HTRF). The note with it: Homo sapiens, IL-6 HTRF; for EC50: 500 ng/mL LPS, Table 6; for inhibition at 10 µM: LPS, Table 6, read-out: percent inhibition at 10 μM (given in parentheses for EC50 >10 μM). The class given is cell-based. As for the experimental part:
Human Monocyte Cell Culture: Human monocyte cell line (THP-1 cells; Catalog # TIB-202, ATCC, Manassas, Va.) were cultured in Roswell Park Memorial Institute (RPMI) 1640 Medium (Catalog #21870-100, Buffalo, N.Y.) with 1% L-glutamine, 1% HEPES, 1% Sodium Pyruvate, 2% Sodium Bicarbonate supplemented with 100 units/mL penicillin, 50 μg/mL streptomycin, 2-mercaptoethanol (0.05 mM) [basal medium] and 10% fetal bovine serum (Catalog #16140089, Life Technologies, Carlsbad, Calif.) at 37° C. and 5% CO2.
Compound Screening: THP-1 cells were cultured in basal media with 1% FBS for 24 hours before the start of the assay. Each compound was dissolved in DMSO as a 10 mM stock and used to prepare compound source plates. Serial dilution (1:3, 10-point dose-response curves starting from 10 μM) and compound transfer was performed using the ECHO 550 (Labcyte, Sunnyvale, Calif.) into 384-well white low volume assay plates (Greiner Bio-One) with appropriate DMSO backfill for a final DMSO concentration of 0.1%. THP-1 cells were plated at 5000 cells/well in the 384-well plates and incubated at 37° C. for 2 h. 500 ng/mL of LPS was added after 2 hours and cells were incubated for another 22 hours at 37° C. Plates were spun in a centrifuge for 1 minute at […] and a mixture of anti-IL6 XL665, and anti-IL6 Cryptate diluted in reconstitution buffer (Cisbio Inc.) was added to each well. Following incubation for 3 hrs at room temperature, Homogeneous Time-Resolved Fluorescence (HTRF) was measured using the Envision (Perkin Elmer) at 665 nm and […]. The ratio of fluorescence at 665 nm to 620 nm was used as a readout for IL6 quantification. All samples were processed in duplicate. Readings were normalized to DMSO treated cells and normalized activities were utilized for EC50 calculations using the dose-response log (inhibitor) vs. response-variable slope (four parameters) nonlinear regression feature available in GraphPad Prism 5.0 (or Dotmatics). For EC50 of >10 μM, the percent inhibition at 10 μM is provided.

Bounds are passed on as bounds.

On to `CC(C)C(=O)Nc1cncc(-c2ccc3[nH]nc(-c4nc5c(-c6ccccc6F)cccc5[nH]4)c3n2)c1` [Compound 65, N-(5-(3-(4-(2-fluorophenyl)-1H-benzo[d]imidazol-2-yl)-1H-pyrazolo[4,3-b]pyridin-5-yl)pyridin-3-yl)isobutyramide], for which the EC50 (as a rule, the concentration that produces a half-maximal response) was above 10 µM and the inhibition (as a rule, the change of the read-out against control, counted positive when it falls) at 10 µM amounted to 30.7%.

In turn, `CN(C)c1cncc(-c2ccc3[nH]nc(-c4nc5c(N6CCCCC6)cccc5[nH]4)c3n2)c1` [Compound 175, N,N-dimethyl-5-(3-(4-(piperidin-1-yl)-1H-benzo[d]imidazol-2-yl)-1H-pyrazolo[4,3-b]pyridin-5-yl)pyridin-3-amine] gave a 50% effective concentration (EC50) of 2.97 µM.

In turn, `c1ccc2[nH]c(-c3n[nH]c4ccc(-c5cncc(OC6CCNCC6)c5)nc34)nc2c1` [Compound 656, 3-(1H-Benzo[d]imidazol-2-yl)-5-(5-(piperidin-4-yloxy)pyridin-3-yl)-1H-pyrazolo[4,3-b]pyridine] came in with an EC50 of 1.4 µM.

`CCCCC(=O)Nc1cncc(-c2ccc3[nH]nc(-c4nc5c(-c6ccccn6)cccc5[nH]4)c3n2)c1` [Compound 159, N-(5-(3-(4-(Pyridin-2-yl)-1H-benzo[d]imidazol-2-yl)-1H-pyrazolo[4,3-b]pyridin-5-yl)pyridin-3-yl)pentanamide]: the EC50 is above 10 µM and the inhibition at 10 µM turned out to be 26.6%.

Consider `Cc1cn(-c2cccc3[nH]c(-c4n[nH]c5ccc(-c6cncc(OCCN(C)C)c6)nc45)nc23)cn1` [Compound 627, N,N-Dimethyl-2-((5-(3-(4-(4-methyl-1H-imidazol-1-yl)-1H-benzo[d]imidazol-2-yl)-1H-pyrazolo[4,3-b]pyridin-5-yl)pyridin-3-yl)oxy)ethan-1-amine], for which the EC50 came to 1 µM.

Consider `CN1CCN(c2cccc3[nH]c(-c4n[nH]c5ccc(-c6cnccn6)nc45)nc23)CC1` [Compound 648, 3-(4-(4-Methylpiperazin-1-yl)-1H-benzo[d]imidazol-2-yl)-5-(pyrazin-2-yl)-1H-pyrazolo[4,3-b]pyridine], for which the midpoint of the response, the EC50, lay at 0.0695 µM.

Turning to `NC1CN(c2cncc(-c3ccc4[nH]nc(-c5nc6c(-c7ccc(Cl)s7)cccc6[nH]5)c4n3)n2)C1` [Compound 1068, 1-(6-(3-(4-(5-Chlorothiophen-2-yl)-1H-benzo[d]imidazol-2-yl)-1H-pyrazolo [4,3-b]pyridin-5-yl)pyrazin-2-yl)azetidin-3-amine], the EC50 was above 10 µM and the inhibition at 10 µM was 42.7%.

As to `COc1cccc(-c2cccc3[nH]c(-c4n[nH]c5ccc(-c6cncc(O)c6)nc45)nc23)c1` [Compound 1030, 5-(3-(4-(3-Methoxyphenyl)-1H-benzo[d]imidazol-2-yl)-1H-pyrazolo[4,3-b]pyridin-5-yl)pyridin-3-ol], the EC50 amounted to 0.0055 µM.

`Fc1cccc(-c2cccc3[nH]c(-c4n[nH]c5ccc(-c6cncc(CN7CCC(F)(F)C7)c6)nc45)nc23)c1` [Compound 26, 5-(5-((3,3-Difluoropyrrolidin-1-yl)methyl)pyridin-3-yl)-3-(4-(3-fluorophenyl)-1H-benzo[d]imidazol-2-yl)-1H-pyrazolo[4,3-b]pyridine]: the EC50 stood at 5.18 µM.

As to `c1ccc(COc2cncc(-c3ccc4[nH]nc(-c5nc6c(-c7ccncc7)cccc6[nH]5)c4n3)c2)cc1` [Compound 582, 5-(5-(Benzyloxy)pyridin-3-yl)-3-(4-(pyridin-4-yl)-1H-benzo[d]imidazol-2-yl)-1H-pyrazolo[4,3-b]pyridine], the EC50 was above 10 µM and the inhibition at 10 µM came out at 2.8%.

The compound `O=C(CC1CCNCC1)Nc1cncc(-c2ccc3[nH]nc(-c4nc5c(-c6ccccn6)cccc5[nH]4)c3n2)c1` [Compound 593, 2-(Piperidin-4-yl)-N-(5-(3-(4-(pyridin-2-yl)-1H-benzo[d]imidazol-2-yl)-1H-pyrazolo[4,3-b]pyridin-5-yl)pyridin-3-yl)acetamide] gave an EC50 of 0.929 µM.

Take `Cn1cc(-c2ccc3[nH]nc(-c4nc5c(-c6ccc(F)cc6)cccc5[nH]4)c3n2)c(CO)n1` [Compound 1129, (4-(3-(4-(4-Fluorophenyl)-1H-benzo[d]imidazol-2-yl)-1H-pyrazolo[4,3-b]pyridin-5-yl)-1-methyl-1H-pyrazol-3-yl)methanol]: the midpoint of the response, the EC50, lay at 9.72 µM.

Turning to `c1ccc2[nH]c(-c3n[nH]c4ccc(-c5cn[nH]c5)nc34)nc2c1` [Compound 651, 3-(1H-Benzo[d]imidazol-2-yl)-5-(1H-pyrazol-4-yl)-1H-pyrazolo[4,3-b]pyridine], the EC50 is above 10 µM and the inhibition at 10 µM is 0%.

Turning to `CN(C)CCNc1cc(F)cc(-c2cccc3[nH]c(-c4n[nH]c5ccc(-c6cncc(OCCN7CCCC7)c6)nc45)nc23)c1` [Compound 786, N^1-(3-Fluoro-5-(2-(5-(5-(2-(pyrrolidin-1-yl)ethoxy)pyridin-3-yl)-1H-pyrazolo[4,3-b]pyridin-3-yl)-1H-benzo[d]imidazol-4-yl)phenyl)-N^2,N^2-dimethylethane-1,2-diamine], the EC50 was 2.07 µM. That is a single-digit micromolar value.

For the compound `c1cc(-c2ccncc2)c2nc(-c3n[nH]c4ccc(-c5cnccn5)nc34)[nH]c2c1` [Compound 584, 5-(Pyrazin-2-yl)-3-(4-(pyridin-4-yl)-1H-benzo[d]imidazol-2-yl)-1H-pyrazolo[4,3-b]pyridine], the EC50 is above 10 µM and the inhibition at 10 µM stood at 14.7%.

As to `Cc1cn(-c2cccc3[nH]c(-c4n[nH]c5ccc(C6=CCNCC6)nc45)nc23)cn1` [Compound 618, 3-(4-(4-Methyl-1H-imidazol-1-yl)-1H-benzo[d]imidazol-2-yl)-5-(1,2,3,6-tetrahydropyridin-4-yl)-1H-pyrazolo[4,3-b]pyridine], the EC50 was above 10 µM and the inhibition at 10 µM came to 42%.

As to `COc1cccc(-c2cccc3[nH]c(-c4n[nH]c5ccc(-c6cncc(NC(=O)CC(C)(C)C)c6)nc45)nc23)c1` [Compound 1006, N-(5-(3-(4-(3-methoxyphenyl)-1H-benzo[d]imidazol-2-yl)-1H-pyrazolo[4,3-b]pyridin-5-yl)pyridin-3-yl)-3,3-dimethylbutanamide], the EC50 is above 10 µM and the inhibition at 10 µM worked out at 23.8%.

Compound `CN(C)CCNc1cc(F)cc(-c2cccc3[nH]c(-c4n[nH]c5ccc(-c6cnccn6)nc45)nc23)c1` [Compound 792, N^1-(3-Fluoro-5-(2-(5-(pyrazin-2-yl)-1H-pyrazolo[4,3-b]pyridin-3-yl)-1H-benzo[d]imidazol-4-yl)phenyl)-N^2,N^2-dimethylethane-1,2-diamine] had an EC50 of 0.686 µM.

As for `Cn1cc(-c2ccc3[nH]nc(-c4nc5c(-c6cccs6)cccc5[nH]4)c3n2)cn1` [Compound 700, 5-(1-Methyl-1H-pyrazol-4-yl)-3-(4-(thiophen-2-yl)-1H-benzo[d]imidazol-2-yl)-1H-pyrazolo[4,3-b]pyridine], the EC50 is above 10 µM and the inhibition at 10 µM was determined as 27.4%.

In the case of `c1cc(-c2ccncc2)c2nc(-c3n[nH]c4ccc(-c5cncc(OC6CCNCC6)c5)nc34)[nH]c2c1` [Compound 576, 5-(5-(Piperidin-4-yloxy)pyridin-3-yl)-3-(4-(pyridin-4-yl)-1H-benzo[d]imidazol-2-yl)-1H-pyrazolo[4,3-b]pyridine], the EC50 is above 10 µM and the inhibition at 10 µM came to 37%.

For `Cc1ncc(-c2ccc3[nH]nc(-c4nc5c(-c6ccoc6)cccc5[nH]4)c3n2)n1C` [Compound 685, 5-(1,2-Dimethyl-1H-imidazol-5-yl)-3-(4-(furan-3-yl)-1H-benzo[d]imidazol-2-yl)-1H-pyrazolo[4,3-b]pyridine], the EC50 worked out at 9.37 µM.
